Values quoted from earlier work in patent publication US8617560B2, “Peptides for vaccination against human CMV” (priority 1999, dated 2013).

Test system: cytomegaloviruses
Conditions: background statement, Lutz Schneider 1991

For O=C(O)P(=O)(O)O [Foscarnet], the effect on cytomegaloviruses is listed as “virostatic effect”.
